Test results taken from patent publication US20120040920A1, “OLIGOSACCHARIDE ALDONIC ACIDS AND THEIR TOPICAL USE” (priority 1999, published 2012).

How the values were obtained:
[1] = tested on: skin changes associated with aging; assay: skin thickness of forearm by micrometer calipers after topical application; assay type: in vivo, human; conditions: twice daily, four weeks, person
Protocol: In one of the studies related to skin changes associated with aging, skin thickness was measured by micrometer calipers as follows:
The skin was grasped with a 2×6 cm metal hinge; the internal faces of which were coated with emery cloth to prevent slippage, and manually squeezed to threshold subject discomfort. Combined thickness of two whole-skin layers including thickness of the two hinge leaves was measured with micrometer calipers. Thickness of the two hinge leaves was subtracted to determine the actual thickness of two whole-skin layers. Triplicate measurements on treated sites were done and an average number was used for calculation of the skin thickness.
A subject, topically applied twice daily to their left forearm for four weeks lactobionic acid 22% in a solution prepared from water 7 parts and propylene glycol 3 parts. After four weeks their right forearm was still loose and relatively thin, and the skin was relatively rough and dry. […] While there was no change in skin thickness of their right forearm, their left forearm had increased 12% in skin thickness as measured by the micrometer calipers described in the Example.

[2] = antioxidant property, banana peel test method; conditions: for colour of banana peels: 1×2 cm peels in 5 ml 0.1 M solution, room temperature
Text: (§1) An antioxidant may be defined as a substance capable of preventing or inhibiting oxidation. […] The antioxidant property is readily determined by using any one of the following test methods: prevention or retardation of air oxidation of (a) anthralin, (b) hydroquinone, or (c) banana peel. A freshly prepared anthralin solution or cream is bright yellow, and an air oxidized one is brownish or black. A hydroquinone solution or cream is colorless or white color, and an air oxidized one is brownish or black. A freshly peeled banana peel is light yellow in color and an oxidized one ranges in color from tan, dark tan, brown to brownish black.
For example, in control experiments, fresh banana peels cut into sizes of 1×2 cm in 50 mm plastic petri dishes containing 5 ml water at neutral or acidic pH changed in color from white-yellowish to tan within 6 hours at room temperature, and changed to dark tan color during the next period of 24 to 72 hours.
Antioxidant property of an oligosaccharide aldonic acid may also be determined by utilizing banana peel test method as follows.
A fresh ripe banana peel cut into sizes of 2×2 cm has the outer layer light yellow in color. These freshly cut banana peels after exposed to air or immersed in an aqueous solution without an antioxidant in 50 mm plastic petri dishes rapidly changed in color from yellowish to tan within 3 hours, dark tan within 24 hours and brown black after 72 hours. A test substance including a positive control such as vitamin C, citric acid or N-acetylcysteine was prepared as 0.1 M concentration, and each test dish contained 5 ml test solution. Freshly cut banana peels 2×2 cm in sizes were immersed in 5 ml test solutions including known antioxidants and vehicle controls with pH at 7.0 and 4.0. […] The same results were also found for the known antioxidant substances; vitamin C, citric acid and N-acetylcysteine.

dry vaginal mucosa = assay: topical treatment of dry vaginal mucosa; assay type: in vivo, human; conditions: 5% in molecular complex with 0.5% L-arginine, oil-in-water cream pH 3.1, twice daily, one week, person
Protocol: Lactobionic acid 50% aqueous solution 10 g was uniformly mixed with an oil-in-water base 80 g, and the cream thus obtained had pH 2.5. L-Arginine 5% solution 10 g prepared from 8 parts water and 2 parts propylene glycol by volume was added to form molecular complex of amphoteric system as shown by the increase of pH to 3.1. The composition thus formulated contained 5% lactobionic acid in molecular complex with 0.5% L-arginine.
A subject, having dry vaginal mucosa topically applied the above bionic acid cream twice daily to the affected areas of the mucosa.

[3] = tested on: skin fissures (open cuts); assay: topical treatment of skin fissures at finger tips; assay type: in vivo, human; conditions: 10% oil-in-water cream twice daily, person
Protocol: A subject, having two skin fissures (open cuts) 2-3 mm long at the finger tips, extending from the hyponychia, topically applied twice daily lactobionic acid 10% oil-in-water cream to one fissure for one week. The other fissure was treated with a vehicle control.

[4] = tested on: circular wounds 0.5 mm in depth; assay: healing of circular 4 mm biopsy punch wounds on forearm; assay type: in vivo, human; conditions: 2% in distilled water
Text: A sterile 4 mm skin biopsy punch was used to make two circular wounds 0.5 mm in depth on alcohol-swabbed left forearm of a healthy subject. The wounds were swabbed dry with cotton balls. A control solution containing 0.9% sodium chloride in distilled water was applied to one circular wound, and a test solution containing 2% lactobionic acid in distilled water was applied to the other circular wound. Both wounds were covered with 3M Tegaderm tapes for five days. […] The erythema disappeared from both skin sites at the end of nine days.

[5] = tested on: chronic gum disease of bleeding; assay: oral gurgling treatment of chronic gum disease; assay type: in vivo, human; conditions: 5% in molecular complex with 1% L-arginine, pH 3.3, gurgling twice daily, one week, person
Protocol: Lactobionic acid 50% aqueous solution 10 g was diluted with 60 ml water and 10 ml propylene glycol, and the solution had pH 2.1. L-Arginine 5% solution 20 g prepared from 8 parts water and 2 parts propylene glycol by volume was added to form molecular complex of amphoteric system as shown by the increase of pH to 3.3. The composition thus formulated contained 5% lactobionic acid in molecular complex with 1% L-arginine.
A subject, having chronic gum disease of bleeding during the tooth brushing, used the above bionic acid complex composition twice daily as a gurgling solution with at least one minute of contact time in oral cavity. No food or drink was taken for the next 30 minutes.

[6] = tested on: linear wounds 1 cm in length and 0.5 mm in depth; assay: healing of linear needle wounds on forearm; assay type: in vivo, human; conditions: 2% in distilled water
Text: A sterile 22-gauge needle was held in the jaws of a surgical needle holder, and two linear wounds 1 cm in length and 0.5 mm in depth were made on alcohol-swabbed left forearm of a healthy subject. The wounds were swabbed dry with cotton balls. A control solution containing 0.9% sodium chloride in distilled water was applied to one wound, and a test solution containing 2% lactobionic acid in distilled water was applied to the other wound. Both wounds were covered with 3M Tegaderm tapes for five days. […] The erythema disappeared from both skin sites at the end of nine days.

[7] = antioxidant property, hydroquinone test method; assay type: physicochemical; conditions: oil-in-water cream, 2% hydroquinone, test substance 0.4 M, room temperature, 5 days
Text: as §1
Antioxidant property of an oligosaccharide aldonic acid may also be determined by utilizing hydroquinone test method as follows. Hydroquinone also known as 1,4-dihydroxybenzene is a white powder, and a composition containing hydroquinone without a suitable antioxidant is chemically unstable even at room temperature. For example, hydroquinone 2% in an oil-in-water cream changed in color from white to grey within 2 hours, and the cream became light brown within 48 hours and dark brown after 72 hours at room temperature.

[8] = tested on: contact dermatitis or erythema; assay: topical treatment of facial erythema caused by glycolic acid cream; assay type: in vivo, human; conditions: 5% partially neutralized cream, three applications over 24 hour period, person; control side persisted
Text: A subject, developed contact dermatitis or erythema on their face after topical applications of 20% unneutralized glycolic acid cream. They applied 5% partially neutralized lactobionic acid cream on the left side of their face and a control cream on the right side of their face.

[9] = covered five days, end of one week, saline control not epithelialized

O=C(O)[C@H](O)[C@@H](O)[C@H](O[C@@H]1O[C@H](CO)[C@H](O)[C@H](O)[C@H]1O)[C@H](O)CO [lactobionic acid]
increase in skin thickness ([1]; 22% in water/propylene glycol 7:3 solution, left forearm): 12%
skin condition of treated forearm ([1]; 22% solution): more firm and plump, and the skin was smooth, soft and not dry
colour of banana peels ([2]; 24 hours): remained white-yellowish
colour of banana peels ([2]; after 72 hours): changed in color to tan
colour change of banana peels ([2]; 2×2 cm peels in 5 ml 0.1 M test solution, water control tan within 4 hours): did not change color
dryness of vaginal mucosa (dry vaginal mucosa): dryness of vaginal mucosa disappeared completely
healing of skin fissure ([3]; after a week, vehicle site unhealed): skin fissure healed completely
pain of skin fissure [3]: pain disappeared after a few days
wound healing [4, 9]: healed with re-epithelialization
time to disappearance of erythema ([4]; same at control site): nine
gum bleeding during tooth brushing [5]: gum bleeding stopped or became less noticeable
wound healing [6, 9]: healed with re-epithelialization
time to disappearance of erythema ([6]; same at control site): nine
colour change of hydroquinone cream [7]: did not change color
erythema of facial skin [8]: improved substantially and the erythema became less noticeable
